The structures appear in SMILES notation.

In this assay the target is T1, rh beta tryptase (Homo sapiens, UniProt Q15661).
T1 construct: purchased Promega
T1 sequence (Q15661 31-275): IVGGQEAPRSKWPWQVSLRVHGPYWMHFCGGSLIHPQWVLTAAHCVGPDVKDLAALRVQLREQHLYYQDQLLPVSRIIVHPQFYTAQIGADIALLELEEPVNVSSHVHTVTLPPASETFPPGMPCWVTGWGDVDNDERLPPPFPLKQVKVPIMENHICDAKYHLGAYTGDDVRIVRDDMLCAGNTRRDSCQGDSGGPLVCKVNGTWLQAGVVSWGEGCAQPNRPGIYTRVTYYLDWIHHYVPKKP
Nature of the assay: tryptase inhibition test (cleavage of N-p-tosyl-Gly-Pro-Lys-para-nitroaniline, p-nitroaniline measured at 405 nm). Conditions: Tris HCl buffer pH 7.4 with calcium and heparin; substrate 0.6 mM; 5 min pre-incubation, 5 min incubation, 37° C. It is filed as biochemical. The method, then:
The compounds according to the invention are characterised by their tryptase-inhibiting activity. This ability to inhibit tryptase was investigated using the test described below.
The measurement is carried out in Tris HCl buffer (100 mM), which additionally contains calcium (5 mM) and heparin (100 mg/ml), at pH 7.4. The standard used is rh beta tryptase which may be obtained commercially from Promega, for example. The substrate used is N-p-tosyl—Gly-Pro-Lys-para-nitroaniline in a concentration of 0.6 mM. The substrate is digested with tryptase to form p-nitroaniline which can be measured at 405 nm. Usually, an incubation period of 5 minutes and an incubation temperature of 37° C. are chosen. The enzyme activity used is 0.91 U/ml. The measurements are carried out in an Autoanalyser (Cobas Bio) made by Hofmann LaRoche. The potential inhibitory substances are used in concentrations of 10 μM in the screening, the inhibition of the tryptase being given in percent. The IC50 (concentration at which 50% of the enzyme activity is inhibited) is determined at over 70% inhibition. After 5 minutes' pre-incubation of the potential inhibitory substances, the substrate is added to start the reaction, the formation of p-nitroaniline being taken as a measurement of the enzyme activity after 5 minutes, after testing the linearity.
In general, IC50 refers to the concentration at which inhibition is half-maximal. In the case of `NCc1ccc(OCc2cccc(CNCCCCCNCc3cccc(COc4ccc(CN)cc4)c3)c2)cc1` [Example 7], the half-inhibitory concentration (IC50) came out at 4.3 nM.
The value for `NCc1ccc(OCc2cccc(CNCCc3cccc(NCc4cccc(COc5ccc(CN)cc5)c4)c3)c2)cc1` [Example 10] was 35 nM; that for `NCc1ccc(OCc2cccc(CNCC3CCC(CNCc4cccc(COc5ccc(CN)cc5)c4)CC3)c2)cc1` (centres unmarked) [Example 11] was 4 nM.
The result for `CC(C)(CCC(C)(C)NCc1cccc(COc2ccc(CN)cc2)c1)NCc1cccc(COc2ccc(CN)cc2)c1` [Example 14] reads 13 nM; that for `NCc1ccc(OCc2cccc(CNCc3cccc(CNCc4cccc(COc5ccc(CN)cc5)c4)c3)c2)cc1` [Example 15], 23 nM.
The result for `NCc1ccc(OCc2cccc(CNCc3ccc(CNCc4cccc(COc5ccc(CN)cc5)c4)cc3)c2)cc1` [Example 16] reads 12 nM; that for `N=C(N)c1ccc(OCc2cccc(CNCCCCCNCc3cccc(COc4ccc(C(=N)N)cc4)c3)c2)cc1` [Example 17], 1.4 nM.
Turning to `CC1(NCc2cccc(COc3ccc(CN)cc3)c2)CCC(C(C)(C)NCc2cccc(COc3ccc(CN)cc3)c2)CC1` (centres unmarked) [Example 18], the 50% inhibitory concentration (IC50) came to 10.7 nM.
The result for `NCc1ccc(OCc2cccc(CNC3CCC(CC4CCC(NCc5cccc(COc6ccc(CN)cc6)c5)CC4)CC3)c2)cc1` (centres unmarked) [Example 19] reads 10 nM; that for `NCc1ccc(OCc2cccc(CNCC3CCCC(CNCc4cccc(COc5ccc(CN)cc5)c4)C3)c2)cc1` (centres unmarked) [Example 20], 7.1 nM; that for `N=C(N)c1ccc(OCc2cccc(CNCCCCCCCNCc3cccc(COc4ccc(C(=N)N)cc4)c3)c2)cc1` [Example 23], 1.1 nM.
The value for `CN(CCCCCCN(C)Cc1cccc(COc2ccc(C(=N)N)cc2)c1)Cc1cccc(COc2ccc(C(=N)N)cc2)c1` [Example 24] was 3.1 nM; that for `N=C(N)c1ccc(OCc2cccc(CNCCCCCCNCc3cccc(COc4ccc(C(=N)N)cc4)c3)c2)cc1` [Example 25] was 1.2 nM.
For the compound `N=C(N)c1ccc(OCc2cccc(CNCC3CCC(CNCc4cccc(COc5ccc(C(=N)N)cc5)c4)CC3)c2)cc1` (centres unmarked) [Example 26], the half-inhibitory concentration (IC50) was 0.8 nM.
The value for `CC(C)(CCC(C)(C)NCc1cccc(COc2ccc(C(=N)N)cc2)c1)NCc1cccc(COc2ccc(C(=N)N)cc2)c1` [Example 27] was 1.7 nM; that for `N=C(N)c1ccc(OCc2cccc(CNCc3cccc(CNCc4cccc(COc5ccc(C(=N)N)cc5)c4)c3)c2)cc1` [Example 28] was 5.3 nM; that for `N=C(N)c1ccc(OCc2cccc(CNCc3ccc(CNCc4cccc(COc5ccc(C(=N)N)cc5)c4)cc3)c2)cc1` [Example 29] was 1.7 nM.
The value for `CCCCN(CCCCCCN(CCCC)Cc1cccc(COc2ccc(C(=N)N)cc2)c1)Cc1cccc(COc2ccc(C(=N)N)cc2)c1` [Example 30] was 6.8 nM.
The result for `CN(CCCCCCN(C)Cc1cccc(COc2ccc(CN)cc2)c1)Cc1cccc(COc2ccc(CN)cc2)c1` [Example 31] reads 13 nM.
As for `N=C(N)c1ccc(OCc2cccc(CNCCCCC(NCc3cccc(COc4ccc(C(=N)N)cc4)c3)C(=O)O)c2)cc1` (centres unmarked) [Example 32], the IC50 came to 32.4 nM.
The result for `CC(C)(CCCCC(C)(C)NCc1cccc(COc2ccc(C(=N)N)cc2)c1)NCc1cccc(COc2ccc(C(=N)N)cc2)c1` [Example 33] reads 2.5 nM.
`N=C(N)c1ccc(OCc2cccc(CN3CCC(C4CCN(Cc5cccc(COc6ccc(C(=N)N)cc6)c5)CC4)CC3)c2)cc1` [Example 34]: the IC50 is 0.8 nM.
The result for `CN(Cc1ccc(CN(C)Cc2cccc(COc3ccc(CCN)cc3)c2)cc1)Cc1cccc(COc2ccc(CCN)cc2)c1` [Example 35] reads 31.6 nM.
With `N=C(N)c1ccc(OCc2cccc(CNCCOCCNCc3cccc(COc4ccc(C(=N)N)cc4)c3)c2)cc1` [Example 39], the IC50 came to 12 nM.
For `CC1(NCc2cccc(COc3ccc(C(=N)N)cc3)c2)CCC(C(C)(C)NCc2cccc(COc3ccc(C(=N)N)cc3)c2)CC1` (centres unmarked) [Example 40], the IC50 came out at 5 nM.
The value for `NCCc1ccc(OCc2cccc(CN3CCC(C4CCN(Cc5cccc(COc6ccc(CCN)cc6)c5)CC4)CC3)c2)cc1` [Example 42] was 30.9 nM.
As for `N=C(N)c1ccc(OCc2cccc(COCc3ccc(COCc4cccc(COc5ccc(C(=N)N)cc5)c4)cc3)c2)cc1` [Example 56], the IC50 is 19 nM.
The result for `N=C(N)c1ccc(OCc2cccc(CN(Cc3ccc(CN(Cc4cccc(COc5ccc(C(=N)N)cc5)c4)C4CC4)cc3)C3CC3)c2)cc1` [Example 62] reads 41 nM; that for `N=C(N)c1ccc(OCc2ccc(CNCCCCCCNCc3ccc(COc4ccc(C(=N)N)cc4)cc3)cc2)cc1` [Example 63], 0.74 nM.
The result for `N=C(N)c1ccc(OCc2ccc(CN3CCC(C4CCN(Cc5ccc(COc6ccc(C(=N)N)cc6)cc5)CC4)CC3)cc2)cc1` [Example 64] reads 1.1 nM; that for `N=C(N)c1ccc(OCc2ccc(CNCc3ccc(CNCc4ccc(COc5ccc(C(=N)N)cc5)cc4)cc3)cc2)cc1` [Example 65], 0.59 nM.
The value for `NCc1ccc(OCc2cccc(CN3CCC(C4CCN(Cc5cccc(COc6ccc(CN)cc6)c5)CC4)CC3)c2)cc1` [Example 68] was 2.5 nM.

For the origin of these results see patent publication US6780863B1, “Bis-basic compounds with tryptase-inhibitory activity” (Boehringer Ingelheim Pharma GmbH & Co. KG, priority 1999, dated 2004).
